According to paper PMC7522858, “The Synthetic Myeloperoxidase Inhibitor AZD3241 Ameliorates Dextran Sodium Sulfate Stimulated Experimental Colitis” (Frontiers in Pharmacology, 2020):

Molecular target: T1, myeloperoxidase (MPO) (Homo sapiens, UniProt P05164)
T1 construct: isolated human MPO
Experiment: luminol luminescence assay of isolated human MPO with H2O2 and NaCl
Assay type: biochemical

T1 sequence (P05164 165-273): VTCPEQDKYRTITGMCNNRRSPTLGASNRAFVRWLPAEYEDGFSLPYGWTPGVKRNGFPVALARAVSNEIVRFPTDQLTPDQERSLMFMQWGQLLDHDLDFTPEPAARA
T1 sequence (P05164 279-745): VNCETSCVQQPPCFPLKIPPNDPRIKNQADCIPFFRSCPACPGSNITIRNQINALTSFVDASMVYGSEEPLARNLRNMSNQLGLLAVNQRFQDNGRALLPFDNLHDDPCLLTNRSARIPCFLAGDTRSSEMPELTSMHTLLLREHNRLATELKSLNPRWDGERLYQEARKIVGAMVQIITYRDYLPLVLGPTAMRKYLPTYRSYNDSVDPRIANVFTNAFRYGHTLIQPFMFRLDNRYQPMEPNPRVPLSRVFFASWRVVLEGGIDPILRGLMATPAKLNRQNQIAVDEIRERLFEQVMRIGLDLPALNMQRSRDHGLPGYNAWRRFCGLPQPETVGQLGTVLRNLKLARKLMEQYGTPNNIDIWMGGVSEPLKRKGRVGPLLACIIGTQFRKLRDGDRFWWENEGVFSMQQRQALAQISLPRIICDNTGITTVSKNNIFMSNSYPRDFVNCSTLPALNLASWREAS

IC50: ~1200 nM
SMILES: CC(C)OCCn1c(=S)[nH]c(=O)c2[nH]ccc21 [AZD3241]
